# BindingDB's records for patent WO2025049746 (Eikon Therapeutics, 2025)
# Legend:
# [1] = target: T1, Bifunctional 3'-5' exonuclease/ATP-dependent helicase WRN [480-1251] (UniProt Q14191); assay: Biochemical Activity Assays
# T1 construct: 480-1251
# Protocol: The pure fractions were pooled and desalted/buffer exchanged into storage buffer using a HiTrap desalting column. […] First, WRN alone was pre-incubated with DMSO or compound of interest for 15 minutes. To initiate the reaction, ATP, dsDNA substrate, and ssDNA competitor (ssDNA_comp: […]) were added and incubated at room temperature for 20 minutes at which point DNA unwinding activity was monitored by measuring Cy3 fluorescence. After obtaining the reading, the ATPase activity was measured using the ADP-Glo Kinase Assay following the manufacturers recommended protocol. […] Compounds were assayed in a 10-point dose response in duplicate at a 1% DMSO final assay concentration.
# [2] = target: Bifunctional 3'-5' exonuclease/ATP-dependent helicase WRN (Homo sapiens, UniProt Q14191); assay: ADP-Glo Kinase Assay
# Bifunctional 3'-5' exonuclease/ATP-dependent helicase WRN, sequence (Q14191 whole entry): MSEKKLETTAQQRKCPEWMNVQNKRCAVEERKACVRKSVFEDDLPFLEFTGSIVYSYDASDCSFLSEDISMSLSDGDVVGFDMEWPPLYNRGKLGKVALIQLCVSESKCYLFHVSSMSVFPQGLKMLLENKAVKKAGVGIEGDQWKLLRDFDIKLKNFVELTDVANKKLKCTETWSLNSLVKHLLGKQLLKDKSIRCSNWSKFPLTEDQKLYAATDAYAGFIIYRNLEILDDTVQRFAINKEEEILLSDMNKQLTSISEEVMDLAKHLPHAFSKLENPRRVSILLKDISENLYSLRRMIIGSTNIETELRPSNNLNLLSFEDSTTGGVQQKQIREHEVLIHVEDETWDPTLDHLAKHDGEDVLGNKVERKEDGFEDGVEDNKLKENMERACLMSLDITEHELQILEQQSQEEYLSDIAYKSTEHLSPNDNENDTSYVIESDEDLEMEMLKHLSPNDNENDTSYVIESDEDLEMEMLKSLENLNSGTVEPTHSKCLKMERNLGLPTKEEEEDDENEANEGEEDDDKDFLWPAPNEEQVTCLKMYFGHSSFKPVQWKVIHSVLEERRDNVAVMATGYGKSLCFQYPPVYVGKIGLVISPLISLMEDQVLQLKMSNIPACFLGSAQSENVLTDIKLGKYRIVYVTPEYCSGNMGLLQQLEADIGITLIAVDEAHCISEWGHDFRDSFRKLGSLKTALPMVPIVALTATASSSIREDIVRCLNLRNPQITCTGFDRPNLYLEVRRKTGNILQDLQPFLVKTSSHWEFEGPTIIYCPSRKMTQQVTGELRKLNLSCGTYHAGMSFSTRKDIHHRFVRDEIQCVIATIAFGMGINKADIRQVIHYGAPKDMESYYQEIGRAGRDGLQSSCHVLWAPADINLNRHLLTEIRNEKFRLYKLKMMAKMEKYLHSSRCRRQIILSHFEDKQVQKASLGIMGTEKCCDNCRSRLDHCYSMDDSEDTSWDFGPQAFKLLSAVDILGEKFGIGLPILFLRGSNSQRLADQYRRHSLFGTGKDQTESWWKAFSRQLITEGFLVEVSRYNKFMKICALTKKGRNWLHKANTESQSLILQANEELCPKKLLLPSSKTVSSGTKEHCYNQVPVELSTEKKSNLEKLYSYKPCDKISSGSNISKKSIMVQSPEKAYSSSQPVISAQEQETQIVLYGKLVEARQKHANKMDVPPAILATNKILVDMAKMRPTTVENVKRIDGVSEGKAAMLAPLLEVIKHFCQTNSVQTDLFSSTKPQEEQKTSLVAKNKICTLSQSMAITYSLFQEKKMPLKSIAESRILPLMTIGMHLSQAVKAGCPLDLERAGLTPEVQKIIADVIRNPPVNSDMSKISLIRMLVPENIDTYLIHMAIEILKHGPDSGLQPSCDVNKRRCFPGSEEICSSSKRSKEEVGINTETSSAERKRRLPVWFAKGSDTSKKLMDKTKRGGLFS
# Protocol: ATPase activity was measured using the ADP-Glo Kinase Assay following the manufacturers recommended protocol.
# T1 sequence (Q14191 480-1251): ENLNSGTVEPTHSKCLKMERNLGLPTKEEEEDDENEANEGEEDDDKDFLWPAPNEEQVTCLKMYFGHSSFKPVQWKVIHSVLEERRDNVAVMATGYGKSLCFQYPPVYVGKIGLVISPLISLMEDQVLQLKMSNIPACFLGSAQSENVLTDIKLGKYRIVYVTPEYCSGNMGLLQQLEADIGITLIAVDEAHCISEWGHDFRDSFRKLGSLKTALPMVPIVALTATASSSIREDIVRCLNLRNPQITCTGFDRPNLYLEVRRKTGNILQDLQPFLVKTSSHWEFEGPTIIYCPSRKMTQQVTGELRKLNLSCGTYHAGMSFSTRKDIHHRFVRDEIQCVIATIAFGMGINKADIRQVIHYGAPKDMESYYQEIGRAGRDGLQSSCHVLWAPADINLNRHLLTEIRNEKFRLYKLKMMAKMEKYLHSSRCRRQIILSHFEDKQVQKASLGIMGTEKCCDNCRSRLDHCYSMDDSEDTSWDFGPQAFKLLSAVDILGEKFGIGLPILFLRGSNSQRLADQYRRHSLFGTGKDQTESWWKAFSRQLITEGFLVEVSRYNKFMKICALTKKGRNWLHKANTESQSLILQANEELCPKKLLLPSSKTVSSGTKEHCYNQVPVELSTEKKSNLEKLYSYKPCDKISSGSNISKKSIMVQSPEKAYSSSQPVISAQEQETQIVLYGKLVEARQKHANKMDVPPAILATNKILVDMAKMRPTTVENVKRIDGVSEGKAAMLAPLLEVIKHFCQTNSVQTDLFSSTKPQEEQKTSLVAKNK
IC50 [1] [nM],IC50 [2] [nM],SMILES
1,3,"CCc1c(N2CCN(C(=O)c3ncnc(N4CC(OC)C4)c3O)CC2)c(=O)n2nc(-c3ccc4c(c3)COC4)nc2n1CC(=O)Nc1ccc(C(F)(F)F)cc1Cl [WO2025049746, Example 415]"
31,59,"CCc1c(N2CCN(C(=O)c3ncnc(C)c3O)CC2)c(=O)n2nc(-c3cc4c(cc3C)OCC4)nc2n1CC(=O)Nc1ccc(C(F)(F)F)cc1Cl [WO2025049746, Example 174]"
33,30,"CCc1c(N2CCN(C(=O)c3ncnc(C)c3O)CC2)c(=O)n2nc(-c3ccc4c(c3C)CCO4)nc2n1CC(=O)Nc1ccc(C(F)(F)F)cc1Cl [WO2025049746, Example 238]"
56,79,"CCc1c(N2CCN(C(=O)c3ncnc(C)c3O)CC2)c(=O)n2nc(-c3cc4c(cc3C)COC4)nc2n1CC(=O)Nc1ccc(C(F)(F)F)cc1Cl [WO2025049746, Example 203]"
65,100,"CCc1c(N2CCN(C(=O)c3ncnc(C)c3O)CC2)c(=O)n2nc(-c3ccc4c(c3)COC4)nc2n1CC(=O)Nc1ccc(C2(C(F)(F)F)CC2)cc1Cl [WO2025049746, Example 420]"
25,25,"CCc1c(N2CCN(C(=O)c3ncnc(C)c3O)CC2)c(=O)n2nc(-c3ccc4ncn(C)c4c3)nc2n1CC(=O)Nc1ccc(C(F)(F)F)cc1Cl [WO2025049746, Example 236]"
50,69,"CCc1c(N2CCN(C(=O)c3ncnc(C)c3O)CC2)c(=O)n2nc(-c3cc4n(n3)CCOC4)nc2n1CC(=O)Nc1ccc(C(F)(F)F)cc1Cl [WO2025049746, Example 154]"
42,58,"CCc1c(N2CCN(C(=O)c3ncnc(C)c3O)CC2)c(=O)n2nc(-c3cc(C)c4c(c3)CCO4)nc2n1CC(=O)Nc1ccc(C(F)(F)F)cc1Cl [WO2025049746, Example 171]"
1390,1830,"CCc1c(N2CCN(C(=O)c3ncnc(C)c3O)CC2)c(=O)n2nc(C3=CCOCC3)nc2n1CC(=O)NC1CC2(CC(F)C2)C1 (stereo unspecified) [WO2025049746, Example 372]"
36,52.1,"CCc1c(N2CCN(C(=O)c3ccnc4cc[nH]c34)CC2)c(=O)n2nc(C3=CCOCC3)nc2n1CC(=O)Nc1ccc(C(F)(F)F)cc1Cl [WO2025049746, Example 46]"
25.9,28.3,"CCc1c(N2CCN(C(=O)c3ncnc(C)c3O)CC2)c(=O)n2nc(-c3ccc4c(c3)OCO4)nc2n1CC(=O)Nc1ccc(C(F)(F)F)c2c1CC2 [WO2025049746, Example 96]"
21,19,"CCc1c(N2CCN(C(=O)c3ncnc(C)c3O)CC2)c(=O)n2nc(-c3cnc4c(ccn4C)c3)nc2n1CC(=O)Nc1ccc(C(F)(F)F)cc1Cl [WO2025049746, Example 252]"
25,34,"CCc1c(N2CCN(C(=O)c3cccc4c3NS(=O)(=O)C=C4)CC2)c(=O)n2nc(-c3ccc4c(c3)COC4)nc2n1CC(=O)Nc1ccc(C(F)(F)F)cc1Cl [WO2025049746, Example 426]"
242,289,"CCc1c(N2CCN(C(=O)/C=C/C(=O)c3ccc(OC)cc3)CC2)c(=O)n2nc(C3=CCOCC3)nc2n1CC(=O)Nc1ccc(C(F)(F)F)cc1Cl [WO2025049746, Example 344]"
81,155,"CCc1c(N2CCN(C(=O)c3ncnc(C)c3O)CC2)c(=O)n2nc(C3=CCOCC3)nc2n1CC(=O)Nc1ccc(C(F)(F)F)cn1 [WO2025049746, Example 363]"
29,28,"CCc1c(N2CCN(C(=O)c3ncnc(C)c3O)CC2)c(=O)n2nc(-c3ccc4nn(CC(F)F)cc4c3)nc2n1CC(=O)Nc1ccc(C(F)(F)F)cc1Cl [WO2025049746, Example 292]"
23,24,"CCc1c(N2CCN(C(=O)c3ncnc(C)c3O)CC2)c(=O)n2nc(-c3ccc4ncncc4c3)nc2n1CC(=O)Nc1ccc(C(F)(F)F)cc1Cl [WO2025049746, Example 263]"
4940,3740,"Cc1ncnc(C(=O)N2CCN(c3c4n(c5nc(-c6ccc7c(c6)COC7(C)C)nn5c3=O)[C@@H](C(=O)Nc3ccc(C(F)(F)F)cc3Cl)C[C@@H]4C)CC2)c1O [WO2025049746, Example 472]"
33.4,83.5,"CCc1c(N2CCN(S(C)(=O)=O)CC2)c(=O)n2nc(C3=CCOCC3)nc2n1CC(=O)Nc1ccc(C(F)(F)F)cc1Cl [WO2025049746, Example 59]"
32,27,"CCc1c(N2CCN(C(=O)c3ncnc(C)c3O)CC2)c(=O)n2nc(-c3ccc4oc(=O)n(C)c4c3)nc2n1CC(=O)Nc1ccc(C(F)(F)F)cc1Cl [WO2025049746, Example 225]"
24,21,"CCc1c(N2CCN(C(=O)c3ncnc(C)c3O)CC2)c(=O)n2nc(-c3ccc4c(c3)oc(=O)n4C)nc2n1CC(=O)Nc1ccc(C(F)(F)F)cc1Cl [WO2025049746, Example 233]"

IC50 [1] [nM],IC50 [2] [nM],SMILES
46,48,"CCc1c(N2CCN(C(=O)c3ncnc(C)c3O)CC2)c(=O)n2nc(-c3ccc4c(c3)COC43CCC3)nc2n1CC(=O)Nc1ccc(C(F)(F)F)cc1Cl [WO2025049746, Example 215]"
23.5,27.3,"CCc1c(N2CCN(C(=O)c3ncnc(C)c3O)CC2)c(=O)n2nc(-c3ccc4c(c3)COC4)nc2n1CC(=O)Nc1ccc(C(F)(F)F)cc1Cl [WO2025049746, Example 13]"
32,40,"CCc1c(N2CCN(C(=O)c3ncnc(C)c3O)CC2)c(=O)n2nc(-c3ccc4c(c3)CCN4C)nc2n1CC(=O)Nc1ccc(C(F)(F)F)cc1Cl [WO2025049746, Example 199]"
15.9,19.3,"CCc1c(N2CCN(C(=O)c3ncnc(C)c3O)CC2)c(=O)n2nc(-c3cccc4c3OCCO4)nc2n1CC(=O)Nc1ccc(C(F)(F)F)c2c1CC2 [WO2025049746, Example 97]"
44.5,38.5,"CCc1c(N2CCN(S(=O)(=O)C3CC3)CC2)c(=O)n2nc(C3=CCOCC3)nc2n1CC(=O)Nc1ccc(C(F)(F)F)cc1Cl [WO2025049746, Example 60]"
41.9,63.9,"CCc1c(N2CCN(C(=O)c3csc4cncnc34)CC2)c(=O)n2nc(C3=CCOCC3)nc2n1CC(=O)Nc1ccc(C(F)(F)F)cc1Cl [WO2025049746, Example 43]"
84,524,"CCc1c(N2CCN(C(=O)c3ncnc(C)c3O)CC2)c(=O)n2nc(-c3cncc4c3COCC4)nc2n1CC(=O)Nc1ccc(C(F)(F)F)cc1Cl [WO2025049746, Example 161]"
63,61,"CCc1c(N2CCN(C(=O)c3ncnc(C)c3O)CC2)c(=O)n2nc(-c3ccccc3C(=O)NC3CC3)nc2n1CC(=O)Nc1ccc(C(F)(F)F)cc1Cl [WO2025049746, Example 269]"
28.5,45.1,"CCc1c(N2CCN(C(=O)c3ncccc3N)CC2)c(=O)n2nc(C3=CCOCC3)nc2n1CC(=O)Nc1ccc(C(F)(F)F)cc1Cl [WO2025049746, Example 34]"
39,49,"CCc1c(N2CCN(C(=O)c3ncnc(C)c3O)CC2)c(=O)n2nc(C3=CCOCC3)nc2n1CC(=O)Nc1ccc(OC(F)(F)Cl)cc1Cl [WO2025049746, Example 355]"
37,33,"CCc1c(N2CCN(C(=O)c3ncnc(C)c3O)CC2)c(=O)n2nc(-c3ccc4occc4c3)nc2n1CC(=O)Nc1ccc(C(F)(F)F)cc1Cl [WO2025049746, Example 283]"
84,132,"CCc1c(N2CCC3C2CCCN3C(=O)c2ncnc(C)c2O)c(=O)n2nc(C3=CCOCC3)nc2n1CC(=O)Nc1ccc(C(F)(F)F)cc1Cl (stereo unspecified) [WO2025049746, Example 347]"
24.6,27.3,"CCc1c(N2CCN(C(=O)c3ncnc(C)c3O)CC2)c(=O)n2nc(-c3ccc4c(c3)CCO4)nc2n1CC(=O)Nc1ccc(C(F)(F)F)cc1Cl [WO2025049746, Example 11]"
,29700,"CCc1c(N2CCN(C(=O)c3ncnc(C)c3O)CC2)c(=O)n2nc(C3=CCOCC3)nc2n1CC(=O)NC12CC(C34CC(C(C)(F)F)(C3)C4)(C1)C2 [WO2025049746, Example 354]"
,29700,"CCc1c(N2CCN(C(=O)c3ncnc(C)c3O)CC2)c(=O)n2nc(-c3cncc4c3CCOC4)nc2n1CC(=O)Nc1ccc(C(F)(F)F)cc1Cl [WO2025049746, Example 163]"
66.2,,"CCc1c(N2CCN(C(=O)c3ncnc(C)c3O)CC2)c(=O)n2nc(-c3cccc4c3CCOC4)nc2n1CC(=O)Nc1ccc(C(F)(F)F)cc1Cl [WO2025049746, Example 4]"
,29700,"CCc1c(N2CCN(C(=O)c3ncnc(C)c3O)CC2)c(=O)n2nc(-c3cc(OC)c(OC)c(OC)c3)nc2n1CC(=O)Nc1ccc(C(F)(F)F)cc1Cl [WO2025049746, Example 268]"
,29700,"CCc1c(N2CCN(C(=O)C3CCOCC3)CC2)c(=O)n2nc(-c3ccnc(O)n3)nc2n1CC(=O)Nc1ccc(C(F)(F)F)cc1Cl [WO2025049746, Example 431]"
,9990,"CCc1c(N2CCN(C(=O)c3ncnc(C)c3O)CC2)c(=O)n2nc(-c3ccc4c(c3C)COC4)nc2n1CC(=O)Nc1ccc(C(F)(F)F)cc1Cl [WO2025049746, Example 196]"
,29700,"CCc1c(N2CC3CCN(C(=O)c4ncnc(C)c4O)CC32)c(=O)n2nc(C3=CCOCC3)nc2n1CC(=O)Nc1ccc(C(F)(F)F)cc1Cl (stereo unspecified) [WO2025049746, Example 346]"
,29700,"CCc1c(N2CCN(C(=O)c3ncnc(C)c3O)CC2)c(=O)n2nc(C3=CCOCC3)nc2n1CC(=O)NC12CCC(C(F)(F)F)(CC1)OC2 [WO2025049746, Example 358]"
